Entries after “also recorded” stand apart in the source; their conditions may differ. Like-named read-outs stand apart in the source and are kept apart here.
Key:
[1] = biological target: T1, prostaglandin E2-induced contractions of segments of guinea pig ileum (Cavia porcellus, UniProt A0A286XHJ6); test: Prostaglandin (PGE) Antagonism Assay in guinea pig ileum; parameters: key to PGE antagonism in guinea pig ileum, activity: Active: A concentration of test compound was determined to be "active" if it produced a dose ratio significantly greater than that obtained in a series of blank treatments; conditions: for Kb: Schild plot, guinea pig ileum, 37° C., read-out: PGE antagonism in guinea pig ileum (pA2) (converted); for PGE antagonism in guinea pig ileum, activity: initial concentration of test compound
T1 construct: The ileums were then quickly removed from the guinea pigs; from tissue; host or cells: guinea pig ileum segments (male albino guinea pigs)
T1 sequence (A0A286XHJ6 1-405): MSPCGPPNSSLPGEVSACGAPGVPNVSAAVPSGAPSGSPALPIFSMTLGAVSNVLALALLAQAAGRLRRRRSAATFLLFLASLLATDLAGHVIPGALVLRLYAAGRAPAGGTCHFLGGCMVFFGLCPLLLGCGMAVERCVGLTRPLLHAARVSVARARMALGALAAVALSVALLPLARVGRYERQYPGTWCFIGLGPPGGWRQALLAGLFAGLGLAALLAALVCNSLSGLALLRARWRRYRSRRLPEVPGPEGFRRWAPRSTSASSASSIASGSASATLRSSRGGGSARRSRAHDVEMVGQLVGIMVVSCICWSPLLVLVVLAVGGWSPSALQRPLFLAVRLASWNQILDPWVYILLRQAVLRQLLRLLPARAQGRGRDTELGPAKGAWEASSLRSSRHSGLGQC
Protocol: In order to determine the effectiveness of several of the compounds of the present invention ("test compounds") as prostaglandin E2 antagonists,a prostaglandin antagonism assay was conducted, as described below, to determine the ability of these compounds to inhibit prostaglandin E2 -induced contractions of segments of guinea pig ileum.
Male albino guinea pigs weighing 200 to 500 grams were sacrificed by cervical dislocation.
The ileums were then quickly removed from the guinea pigs and placed in a modified Tyrode solution, a solution which is known to those of skill in the art, containing one-half of the usual amount of magnesium ions.
Segments of ileum about 2 cm long were then cut and mounted in a 10-mL tissue bath containing the modified Tyrode solution. The solution was maintained at 37° C. and aerated with a gaseous mixture of 95% oxygen and 5% carbon dioxide.
Submaximal contractions of the ileum segments were then generated by injecting prostaglandin E2 into the bath, and detected isotonically. Data for a control prostaglandin E2 dose response curve plotting concentration of prostaglandin E2 versus number of contractions generated was then obtained by experimentally adjusting the dose of the prostaglandin E2 being injected into the tissue bath, in a manner known by those of skill in the art.
Solutions or suspensions containing an initial amount of a test compound in modified Tyrode solution ("test solutions/suspensions") were then separately substituted for the tissue bath. Each test solution/suspension was then kept in constant contact with the ileum tissue, except for brief periods to drain the bath in preparation for rinsing with fresh test solution/suspension. Different doses of prostaglandin E2 were again injected into the test solutions/suspensions.
A second prostaglandin E2 dose response curve was then generated for PGE2 in the presence of a test compound.
A dose ratio of EC50 doses (that dose of a compound or drug which is necessary to elicit a 50% maximal biological response and, thus, which is necessary to elicit a 50% reduction in the contractions of the guinea pig ileum segments in this assay) was then calculated from the results of each test in a manner known by those of skill in the art. […] Duplicate tests were conducted on each concentration of test compound.
If the initial concentration of a test compound was determined to be "active," then varying concentrations of the test compound were then assayed. As is shown in Table I below, all test compounds analyzed in this assay were determined to be "active" as prostaglandin E2 antagonists at the initial concentration.
The pA2 value (a statistical constant which is a common measure of expressing the potency of a particular drug as a competitive antagonist) was then calculated for each test compound by schild plot calculations, as described by H. O. Schild, "pA, A New Scale for the Measurement of Drug Antagonism," Br. J. Pharmacol, 2, 189 (1947), according to the following mathematical formula: […]
to quantitate the effectiveness of the test compounds as prostaglandin E2 antagonists.
The compounds of the present invention which were tested in this assay, and for which results are presented in Table I, correspond to the particular examples specified in Table I.

mice = test: Writhing Assay (PBQ-induced writhing, analgesic activity); type: in vivo, mouse (Charles River male albino); conditions: for rank order of potency in the Writhing Assay: more potent compounds of the invention
Source text: The Writhing Assay is one of the most widely-used experimental procedures for measuring the analgesic activity of different narcotic and nonnarcotic analgesic agents, and involves the continuous, chemically-induced pain of visceral origin to an animal, such as a mouse or rat. [Gyires et al., Arch. int. Pharmacodyn, 267, 131-140 (1984); C. Vander Wende et al., Fed. Proc., 15, 494 (1956); Koster et al., Fed. Proc., 18, 412 (1959); and Witken et al., J. Pharmacol. exp. Ther., 133, 400-408 (1961).] Chemicals which may be used to induce this pain include phenylbenzoquinone (PBQ) and acetic acid. As a result of the chemical irritation to the animal, a characteristic stretching and writhing of the animal (dorsiflexion of the animal's back, extension of its hindlimbs and the strong contraction of its abdominal musculature) will generally occur. […] Drugs which reduce the number of writhes of the animal appear to restore the normal nociceptive threshold of the animal.
Charles River male albino mice, weighing 20 to 30 grams were used in this assay.
Thirty minutes after subcutaneous or intragastric administration to ten mice of either 10 mg or 30 mg per kilogram of body weight of a compound of the present invention ("test compound"), […] of body weight of a 0.025% w/v solution of PBQ was injected intraperitoneally into each mouse. Ten mice which were given saline in place of a test compound of the invention were used as a control group.
Five minutes later, each mouse was individually placed into a glass beaker for observation, and the number of writhes occurring during the following ten-minute period was counted.
A test compound was considered to have produced analgesia in a mouse if, in accordance with the conditions set forth above, and under the test criteria employed for this assay, after the administration of 10 or 30 mg per kilogram of body weight of a compound of the present invention to the mouse, the number of writhes elicited by a mouse injected with PBQ was equal to, or less than, one-half the median number of writhes recorded for the saline-treated control group of mice that day, as described by Taber in "Predictive Value of Analgesic Assays in Mice and Rats," Advances in Biochemical Psychopharmacology, 8, 191 (1974).
The results for the particular compounds of the present invention analyzed in this assay, and discussed in the examples identified below which correspond thereto, are presented in Table I below.
The standard initial screening doses of a test compound employed in this assay were 10 and/or […] of body weight for both routes of administration. If these initial screening doses of the test compound produced analgesia in seven of ten mice, then the effect of additional doses of the test compound on the writhing response was evaluated, and then the ED50 dose was generally calculated. (The slopes of the dose-response curves for all test compounds analyzed were compared as described by Tallarida and Murray, Manual of Pharmacologic Calculations, Page 11 (Springer Verlag, N.Y., 1981)).

[2] = test system: isolated smooth muscle preparations; conditions: cited from earlier work
[3] = test system: micturition of urethane-anesthetized rats; conditions: cited from earlier work
[4] = po, mouse, intragastric, read-out: PBQ writhing assay ED50, I.G.
[5] = Mus musculus, po, read-out: PBQ writhing assay ED50, I.G.

SMILES: CS(=O)(=O)NCCC(=O)NNC(=O)N1Cc2ccccc2Oc2ccc(Cl)cc21 [Example 11, 8-chlorodibenz[b,f][1,4]oxazepine-10(11H)-carboxylic acid, 2-[3-[(methylsulfonyl)amino]-1-oxopropyl]hydrazide]
- Kb [1]: 794 nM
- PGE antagonism in guinea pig ileum, activity [1]: Active
- rank order of potency in the Writhing Assay (mice): Example 20>Example 27>Example 12>Example 11>Example 28
- ED50 (mice; [4]): 9.7 mg/kg
- ED50 (mice; sc, mouse, subcutaneous, read-out: PBQ writhing assay ED50, S.C.): 3 mg/kg

SMILES: O=C(CP(=O)(O)O)NNC(=O)N1Cc2ccccc2Oc2ccc(Cl)cc21 [Example 28, 8-chlorodibenz[b,f][1,4]oxazepine-10(11H)-carboxylic acid, 2-(phosphonoacetyl)hydrazide]
- rank order of potency in the Writhing Assay (mice): Example 20>Example 27>Example 12>Example 11>Example 28
- ED50 (mice; [4]): 11.2 mg/kg

SMILES: CNC(=O)NCCC(=O)NNC(=O)N1Cc2ccccc2Oc2ccc(Cl)cc21 [Example 12, 8-chlorodibenz[b,f][1,4]oxazepine-10(11H)-carboxylic acid, 2-[3-[[(methylamino)carbonyl]amino]-1-oxopropyl]hydrazide]
- rank order of potency in the Writhing Assay (mice): Example 20>Example 27>Example 12>Example 11>Example 28
- ED50 (mice; [4]): 8.4 mg/kg

SMILES: CCOP(=O)(CC(=O)NNC(=O)N1Cc2ccccc2Oc2ccc(Cl)cc21)OCC [Example 20, 8-chlorodibenz[b,f][1,4]oxazepine-10(11H)-carboxylic acid, 2-[(diethoxyphosphinyl)acetyl]hydrazide]
- Kb [1]: 794 nM
- PGE antagonism in guinea pig ileum, activity [1]: Active
- ED50 (mice; [5]): 8.2 mg/kg
- ED50 (mice; Mus musculus, sc, read-out: PBQ writhing assay ED50, S.C.): 7.1 mg/kg
- rank order of potency in the Writhing Assay (mice): Example 20>Example 27>Example 12>Example 11>Example 28; also recorded: the most potent compound of the invention tested

SMILES: CC(C)(C)OC(=O)NCCC(=O)NNC(=O)N1Cc2ccccc2Oc2ccc(Cl)cc21 [Example 7, 8-chlorodibenz[b,f][1,4]oxazepine-10(11H)-carboxylic acid, 2-[3-[[(1,1-dimethylethoxy)carbonyl]amino]-1-oxopropyl]hydrazide]
- Kb [1]: 2510 nM
- PGE antagonism in guinea pig ileum, activity [1]: Active

SMILES: O=C(Cc1ccccc1)NNC(=O)N1Cc2ccccc2Oc2ccc(Cl)cc21 [SC-18637]
- inhibition of stimulant actions of prostaglandins [2]: inhibit the stimulant actions of prostaglandins on isolated smooth muscle preparations

SMILES: O=C(CCNC(=O)Nc1ccc(C(F)(F)F)cc1)NNC(=O)N1Cc2ccccc2Oc2ccc(Cl)cc21 [Example 10, 8-chlorodibenz[b,f][1,4]oxazepine-10(11H)-carboxylic acid, 2-[1-oxo-3-[[[[(4-trifluoromethyl)phenyl]amino]carbonyl]amino]propyl]hydrazide]
- Kb [1]: 100 nM
- PGE antagonism in guinea pig ileum, activity [1]: Active

SMILES: O=C(Cc1cccs1)NCCC(=O)NNC(=O)N1Cc2ccccc2Oc2ccc(Cl)cc21 [Example 5, 8-chlorodibenz[b,f][1,4]oxazepine-10(11H)-carboxylic acid, 2-[1-oxo-3-[(2-thienylacetyl)amino]propyl]hydrazide]
- Kb [1]: 79.4 nM
- effectiveness as prostaglandin E2 antagonist relative to prostaglandin antagonists reported in the literature ([1]; compared with literature prostaglandin E2 antagonists): more than three to four times more effective
- PGE antagonism in guinea pig ileum, activity [1]: Active

SMILES: CC(=O)NNC(=O)N1Cc2ccccc2Oc2ccc(Cl)cc21 [SC-19220]
- inhibition of stimulant actions of prostaglandins [2]: inhibit the stimulant actions of prostaglandins on isolated smooth muscle preparations
- bladder capacity [3]: increased the bladder capacity
- voiding efficiency of micturition [3]: reduced the voiding efficiency of micturition

SMILES: CCOP(=O)(O)CC(=O)NNC(=O)N1Cc2ccccc2Oc2ccc(Cl)cc21 [Example 27, 8-chlorodibenz[b,f][1,4]oxazepine-10(11H)-carboxylic acid, 2-[(ethoxyhydroxyphosphinyl)acetyl]hydrazide]
- ED50 (mice; [5]): 8.3 mg/kg
- rank order of potency in the Writhing Assay (mice): Example 20>Example 27>Example 12>Example 11>Example 28

SMILES: O=C(CCNS(=O)(=O)c1ccccc1)NNC(=O)N1Cc2ccccc2Oc2ccc(Cl)cc21 [Example 24, 8-chlorodibenz[b,f][1,4]oxazepine-10(11H)-carboxylic acid, 2-[1-oxo-3-[(phenylsulfonyl)amino]propyl]hydrazide]
- Kb [1]: 2000 nM
- PGE antagonism in guinea pig ileum, activity [1]: Active

— patent publication US5393747A, “Substituted dibenzoxazepine compounds for the treatment of convulsions, ischemia and other diseases responsive to prostaglandin-E2 antagonists” (G. D. Searle & Co., priority 1993, dated 1995)
